The subject of data set [1] is adenylate cyclase. The conditions noted are these: literature; cited from earlier work.
Data set [2] has as its system adenylate cyclase. The conditions noted are these: literature; cited from earlier work. This is another data set of the same source.
For data set [3] the following is noted: mildly basic conditions; literature; cited from earlier work.
The test system of data set [4] is bovine brain adenylate cyclase. Kind of data set: Activation of bovine brain adenylate cyclase. The note with it: relative to forskolin. Format: biochemical.
A short description of a further data set: Water solubility. Format: physicochemical. The note with it: relative to forskolin.
Data set [5] relates to adenylate cyclase. Kind of data set: Filtration binding assay, ^125 I-labelled derivative 19 (6-^125 I-HPP-Fsk) to bovine brain membranes. The note with it: bovine brain membranes, 20° C., 60 min. An excerpt: Derivative 19 (6-^125 I-HPP-Fsk) was used to develop a binding assay for adenylate cyclase (Example 4). […] Therefore, a filtration assay can be used to separate the bound from free ligand and determine the amount of high affinity binding. […] Analogs of forskolin that activate adenylate cyclase inhibit the binding of 6-^125 I-HPP-Fsk to membranes. The ability of an agent to inhibit 6-^125 I-HPP-Fsk binding to membranes is therefore indicative of its ability to stimulate adenylate cyclase.
Binding of 6-^125 I-HPP-Fsk to Membranes--Crude membranes from bovine brain were incubated for 60 minutes at […] 20° C. with 20,000 cpm of 6-^125 I-HPP-Fsk. Binding equilibrium was reached by 45 minutes and was constant for at least 2 hours (data not shown). The incubations were carried out at 20° C. for 60 minutes in 12×75 glass test tubes in a total volume of 0.4 mL […] Tris-HCl buffer, pH 7.4. The membranes (0.40 mg/tube) were incubated in the presence of 5 mM MgCl2 and 10 mM NaF. The assay was terminated by the addition of 5 mL of cold Tris-HCl buffer to the tubes and rapid filtration over Whatman GF/C filters using a Brandel cell harvester. The assay was terminated as described above and the filters counted in a gamma counter. The nonspecific binding was calculated as the amount of label not displaced by 20 uM forskolin. The non specific binding was about 20% of the total bound.

For data set [6], the target named is T1, glucose transporter (Homo sapiens, UniProt P11166).
T1 construct: Crude membranes from human red blood cells; from tissue; host or cells: human red blood cells, membranes
T1 sequence (P11166 1-492): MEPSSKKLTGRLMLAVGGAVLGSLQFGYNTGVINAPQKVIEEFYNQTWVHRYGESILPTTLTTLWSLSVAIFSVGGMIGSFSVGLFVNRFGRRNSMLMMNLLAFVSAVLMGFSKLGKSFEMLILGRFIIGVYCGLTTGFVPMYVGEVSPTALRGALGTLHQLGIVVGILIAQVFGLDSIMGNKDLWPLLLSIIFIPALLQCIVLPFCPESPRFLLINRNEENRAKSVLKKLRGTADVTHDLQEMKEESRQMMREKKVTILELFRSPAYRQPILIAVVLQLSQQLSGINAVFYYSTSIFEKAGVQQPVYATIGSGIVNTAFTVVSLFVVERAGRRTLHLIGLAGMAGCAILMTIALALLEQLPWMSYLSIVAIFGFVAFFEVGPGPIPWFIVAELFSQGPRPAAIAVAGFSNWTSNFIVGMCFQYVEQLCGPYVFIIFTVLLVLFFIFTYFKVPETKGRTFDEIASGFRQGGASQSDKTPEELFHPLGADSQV
Kind of data set: Filtration binding assay, ^125 I-labelled derivative 8 (7-^125 I-HPP-Fsk) to human red blood cell membranes. The procedure: Binding of 7-^125 IHPP-Fsk to Membranes--Crude membranes from human red blood cells were incubated for 60 minutes at 20° C. with 20,000 cpm of 7-^125 IHPP-Fsk. […] The incubations were carried out at 20° C. for 60 minutes in 12×75 glass test tubes in a total volume of 0.4 mL 50 mM Tris-HCl buffer, pH 7.4. The assay was terminated by the addition of 4 mL of cold Tris-HCl buffer to the tubes at rapid filtration over Whatman GF/C filters using a Brandel cell harvester. The assay was terminated as described above and the filters counted in a gamma counter. The nonspecific binding was calculated as the amount of label not displaced by 20 μM forskolin.

In data set [7] the test system is glucose transporter. The experiment in a line: Binding of 7-^125 I-HPP-Fsk to bovine brain. An excerpt: (§1) 7-^125 I-HPP-Fsk also binds with high affinity to other tissues including bovine brain, rat heart, rat muscle, and human platelets. The binding of 7-^125 I-HPP-Fsk to these tissues is inhibited by D-glucose and cytochalasin B. Therefore, 7-^125 I-HPP-Fsk binds with high affinity to the glucose transporter in diverse tissues.

In data set [8] the test system is glucose transporter. The experiment in a line: Binding of 7-^125 I-HPP-Fsk to rat heart.
Text: as §1

Data set [9] relates to glucose transporter. The experiment in a line: Binding of 7-^125 I-HPP-Fsk to rat muscle.
Text: as §1

Data set [10] has as its target T2, glucose transporter (Homo sapiens, UniProt P11169).
T2 construct: other tissues including bovine brain, rat heart, rat muscle, and human platelets; from tissue; host or cells: human platelets
T2 sequence (P11169 1-496): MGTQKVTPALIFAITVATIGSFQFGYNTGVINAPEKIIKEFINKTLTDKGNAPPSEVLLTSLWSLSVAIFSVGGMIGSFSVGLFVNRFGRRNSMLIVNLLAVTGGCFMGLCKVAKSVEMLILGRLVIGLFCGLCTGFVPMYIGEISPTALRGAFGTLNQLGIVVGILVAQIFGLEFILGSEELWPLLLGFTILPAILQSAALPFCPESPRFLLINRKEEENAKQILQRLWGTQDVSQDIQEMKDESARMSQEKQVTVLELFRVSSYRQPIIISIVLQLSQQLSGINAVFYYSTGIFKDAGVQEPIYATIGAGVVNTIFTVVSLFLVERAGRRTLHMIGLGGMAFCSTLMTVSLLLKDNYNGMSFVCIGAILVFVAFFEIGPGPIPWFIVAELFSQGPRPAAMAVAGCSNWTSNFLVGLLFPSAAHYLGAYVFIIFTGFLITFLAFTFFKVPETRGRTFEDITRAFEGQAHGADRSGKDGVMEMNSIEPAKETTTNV
The experiment in a line: Binding of 7-^125 I-HPP-Fsk to human platelets.
Text: as §1

The target of data set [11] is T1, glucose transporter. The experiment in a line: Photolabelling of human red blood cell membranes, SDS gel electrophoresis. Format: binding. The procedure:
Derivative 9 (7-AIPPS-Fsk) is incubated with human red blood cell membranes, photolyzed, and then the radioactive proteins were analyzed by SDS gel electrophoresis.

The test system of data set [12] is adenylate cyclase. Kind of data set: Photolabelling of bovine brain membranes, SDS gel electrophoresis. Format: binding. The procedure:
(§2) Derivative 20 (6-AIPPS-Fsk) is incubated with partially purified preparations of bovine brain adenylate cyclase, photolyzed, and then the radioactive proteins are analyzed by SDS gel electrophoresis. […] 6-AIPPS-Fsk can also label adenylate cyclase in crude membranes. 6-AIPPS-Fsk is incubated with bovine brain membranes, photolyzed, and the radioactive proteins are analyzed by SDS gel electrophoresis.

In data set [13] the test system is adenylate cyclase. The experiment in a line: Photolabelling of partially purified bovine brain adenylate cyclase, SDS gel electrophoresis. Format: binding. The procedure:
as §2

The target of the next data set is P-glycoprotein (Homo sapiens, UniProt P08183).
Sequence of P-glycoprotein (P08183 whole entry): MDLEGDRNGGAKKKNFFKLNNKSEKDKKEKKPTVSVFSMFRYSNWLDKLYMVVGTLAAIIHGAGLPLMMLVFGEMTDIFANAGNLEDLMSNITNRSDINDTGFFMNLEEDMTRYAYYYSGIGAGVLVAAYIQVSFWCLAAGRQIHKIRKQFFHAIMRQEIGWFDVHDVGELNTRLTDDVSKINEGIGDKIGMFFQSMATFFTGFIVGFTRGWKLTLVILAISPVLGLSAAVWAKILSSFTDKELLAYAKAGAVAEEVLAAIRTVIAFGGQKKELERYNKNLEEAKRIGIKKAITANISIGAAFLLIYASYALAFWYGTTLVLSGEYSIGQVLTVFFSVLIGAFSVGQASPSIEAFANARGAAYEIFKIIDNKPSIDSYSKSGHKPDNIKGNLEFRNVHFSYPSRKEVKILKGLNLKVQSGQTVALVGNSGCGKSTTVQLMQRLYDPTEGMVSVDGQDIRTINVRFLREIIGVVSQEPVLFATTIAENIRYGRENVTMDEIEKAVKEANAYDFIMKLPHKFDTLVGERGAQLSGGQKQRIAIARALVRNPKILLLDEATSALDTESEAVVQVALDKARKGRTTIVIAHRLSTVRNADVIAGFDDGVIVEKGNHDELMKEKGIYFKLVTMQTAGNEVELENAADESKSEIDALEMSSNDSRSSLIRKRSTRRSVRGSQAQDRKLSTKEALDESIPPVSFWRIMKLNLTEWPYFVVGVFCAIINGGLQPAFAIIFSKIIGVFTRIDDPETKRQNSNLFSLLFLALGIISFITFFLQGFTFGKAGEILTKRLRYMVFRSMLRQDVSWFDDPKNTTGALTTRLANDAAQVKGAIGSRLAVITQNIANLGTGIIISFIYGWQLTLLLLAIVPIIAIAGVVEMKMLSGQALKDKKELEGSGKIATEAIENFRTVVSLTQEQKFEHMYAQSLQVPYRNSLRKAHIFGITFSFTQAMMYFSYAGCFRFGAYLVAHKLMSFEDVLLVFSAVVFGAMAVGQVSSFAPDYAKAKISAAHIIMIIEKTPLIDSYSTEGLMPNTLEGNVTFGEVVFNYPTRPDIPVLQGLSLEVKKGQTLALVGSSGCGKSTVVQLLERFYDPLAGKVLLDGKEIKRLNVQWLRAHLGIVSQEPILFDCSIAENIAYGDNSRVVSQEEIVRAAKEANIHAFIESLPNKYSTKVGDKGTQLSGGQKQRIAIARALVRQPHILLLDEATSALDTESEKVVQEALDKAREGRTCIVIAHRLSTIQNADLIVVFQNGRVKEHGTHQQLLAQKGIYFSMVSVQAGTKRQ

The values below come from US5350864A, “Aminoalkylcarbamyl derivatives of forskolin as intermediates for the synthesis of useful forskolin derivatives” (The United States of America as represented by the …, priority 1990, dated 1994).

Entries after “also recorded” stand apart in the source; their conditions may differ. Read-outs that look alike come from different tables or passages of the source.

Regarding `C=C[C@@]1(C)CC(=O)[C@]2(O)[C@@]3(C)[C@@H](O)CCC(C)(C)[C@@H]3[C@H](OC(C)=O)[C@H](O)[C@@]2(C)O1` [6-acetyl-7-desacetylforskolin], the “activation of adenylate cyclase” value in the data set with adenylate cyclase [1] is “less potent than forskolin”.

Regarding `C=C[C@@]1(C)CC(=O)[C@]2(O)[C@@]3(C)[C@@H](O)CCC(C)(C)[C@@H]3[C@H](O)[C@H](OC(=O)CCl)[C@@]2(C)O1` [7-desacetyl-7-chloroacetylforskolin], the “block of forskolin binding site” value in the data set on adenylate cyclase [2] is reported as “block the forskolin binding site on adenylate cyclase”. The “susceptibility to hydrolysis and rearrangement” value in data set [3] is “susceptible to hydrolysis and rearrangement under mildly basic conditions”.

Take `C=C[C@@]1(C)CC(=O)[C@]2(O)[C@@]3(C)[C@@H](O)CCC(C)(C)[C@@H]3[C@H](O)[C@H](OC(=O)CC)[C@@]2(C)O1` [7-desacetyl-7-propionylforskolin]: the “activation of adenylate cyclase” value with adenylate cyclase [1] was “active at adenylate cyclase”.

`C=C[C@@]1(C)CC(=O)[C@]2(O)[C@@]3(C)[C@@H](O)CCC(C)(C)[C@@H]3[C@H](O)[C@H](O)[C@@]2(C)O1` [7-desacetylforskolin]: the “activation of adenylate cyclase” value in the data set on adenylate cyclase [1] was “less potent than forskolin”.

On to `C=C[C@@]1(C)CC(=O)[C@]2(O)[C@@]3(C)[C@@H](O)CCC(C)(C)[C@@H]3[C@H](O)[C@H](OC(=O)CBr)[C@@]2(C)O1` [7-descacetyl-7-bromoacetylforskolin], for which the “block of forskolin binding site” value in the data set with adenylate cyclase [2] is given as “block the forskolin binding site on adenylate cyclase”. For the same compound, in data set [3], the “susceptibility to hydrolysis and rearrangement” value was “susceptible to hydrolysis and rearrangement under mildly basic conditions”.

As to `C=C[C@@]1(C)CC(O)[C@]2(O)[C@@]3(C)[C@@H](O)CCC(C)(C)[C@@H]3[C@H](O)[C@H](OC(C)=O)[C@@]2(C)O1` (stereo partly drawn) [11β-hydroxyforskolin], in the data set on adenylate cyclase [1], the “activation of adenylate cyclase” value is “less potent than forskolin”.

Turning to `CC[C@@]1(C)CC(=O)[C@]2(O)[C@@]3(C)[C@@H](O)CCC(C)(C)[C@@H]3[C@H](O)[C@H](OC(C)=O)[C@@]2(C)O1` [14,15-dihydroforskolin], in the data set on adenylate cyclase [1], the “activation of adenylate cyclase” value was “less potent than forskolin”.

As for `C=C[C@@]1(C)CC(=O)[C@]2(O)[C@@]3(C)[C@@H](O)CCC(C)(C)[C@@H]3[C@H](OC(=O)NCCN)[C@H](OC(C)=O)[C@@]2(C)O1` [Compound 4, 6-aminoethylcarbamylforskolin], the “extent of stimulation of adenylate cyclase” value in [4] is given as “stimulate adenylate cyclase to a greater extent than forskolin”. Besides, the water solubility entry in “Water solubility” is recorded as “enhanced water solubility”.

`OC[C@H]1OC(O)[C@H](O)[C@@H](O)[C@@H]1O` (stereo partly drawn) [D-glucose]: in the data set on adenylate cyclase [5], the “inhibition of 6-^125 I-HPP-Fsk binding” value is “not inhibited”. Further, the “inhibition of 7-^125 I-HPP-Fsk binding” value is reported as “inhibited; also recorded: inhibition of binding” at glucose transporter [6]; “inhibited” with glucose transporter [7]; “inhibited” in the data set on glucose transporter [8]; “inhibited” with glucose transporter [9]; “inhibited” at glucose transporter [10]. For the same compound, the “inhibition of labelling by 7-AIPPS-Fsk” value against glucose transporter [11] is recorded as “inhibited”.

In the case of `C=C[C@@]1(C)CC(=O)[C@]2(O)[C@@]3(C)[C@@H](O)CCC(C)(C)[C@@H]3[C@H](O)[C@H](OC(=O)NCCNC(=O)CCc3ccc(O)c([125I])c3)[C@@]2(C)O1` [Derivative 8], the “time binding was constant” value at glucose transporter [6] (20° C.) is listed as “at least 2 hours”. For the same compound, the “time to binding equilibrium” value on glucose transporter [6] (20° C.) was at most 45 min. At glucose transporter [6] (human red blood cell glucose transporter, listed as 7-^125 I-HPP-Fsk), the “binding affinity / selectivity” value was “binds to the human red blood cell glucose transporter with high affinity; also recorded: will not detect adenylate cyclase”. Also, the “nonspecific binding (of total bound)” value at glucose transporter [6] (label not displaced by 20 μM forskolin) is recorded as “about 20%”. On glucose transporter [6] (membranes from human red blood cells, read-out: affinity of 7-^125 I-HPP-Fsk), the Kd worked out at 30 nM. The “binding affinity” value in the data set with glucose transporter [7], in the data set on glucose transporter [8], in the data set on glucose transporter [9] and at glucose transporter [10] was “high affinity” each time.

In the case of `C=C[C@@]1(C)CC(=O)[C@]2(O)[C@@]3(C)[C@@H](O)CCC(C)(C)[C@@H]3[C@H](O)[C@H](OC(=O)NCCNC(=O)CCc3ccc(N=[N+]=[N-])c([125I])c3)[C@@]2(C)O1` [Derivative 9], the “photolabelling of glucose transporter” value on glucose transporter [11] (listed as 7-AIPPS-Fsk) is “labels the glucose transporter; also recorded: more potent at labelling the glucose transporter in human red blood cell membranes than 6-AIPPS-Fsk”. In addition, in the data set with adenylate cyclase [12], the “photolabelling of adenylate cyclase” value is given as “less efficient at labelling the adenylate cyclase than the 6-AIPPS-Fsk”.

As to `C=C[C@@]1(C)CC(=O)[C@]2(O)[C@@]3(C)[C@@H](O)CCC(C)(C)[C@@H]3[C@H](OC(=O)NCCNC(=O)CCc3ccc(N=[N+]=[N-])c([125I])c3)[C@H](OC(C)=O)[C@@]2(C)O1` [Derivative 20], the figures for the “photolabelling of adenylate cyclase” value with adenylate cyclase [13] and with adenylate cyclase [12] were “covalently incorporated into the adenylate cyclase” and “labels the adenylate cyclase in bovine brain membranes”, respectively. Further, the “photolabelling of P-glycoprotein” value on P-glycoprotein was “labelled”.

As for `C=C[C@@]1(C)CC(=O)[C@]2(O)[C@@]3(C)[C@@H](O)CCC(C)(C)[C@@H]3[C@H](OC(=O)NCCNC(=O)CCc3ccc(O)cc3)[C@H](OC(C)=O)[C@@]2(C)O1` [Derivative 21], on P-glycoprotein, the “inhibition of labelling by 6-AIPPS-Fsk” value is given as “more potent at inhibiting the labelling by 6-AIPPS-Fsk than forskolin”.

Take `OC[C@@H]1OC(O)[C@@H](O)[C@H](O)[C@H]1O` (stereo partly drawn) [L-glucose]: the “inhibition of 7-^125 I-HPP-Fsk binding” value on glucose transporter [6] is on record as “not L-glucose”.

Regarding `O=C(CCc1ccc(O)cc1)c1c(O)cc(O)cc1O[C@@H]1O[C@H](CO)[C@@H](O)[C@H](O)[C@H]1O` [phloridzin], the “inhibition of 7-^125 I-HPP-Fsk binding” value on glucose transporter [6] (human red blood cell membranes) is reported as “relatively potent”.
